Measurements: patent US10130598B2, “Methods and compositions for administration of 3-halopyruvate and related compounds for the treatment of cancer” (The Johns Hopkins University, priority 2008, dated 2018)

Key:
[1] = system: Human PANC-10 pancreatic cancer cells; assay: Orthotopic xenograft pancreatic cancer model, oral 3-BrPA; assay type: in vivo, NOD/SCID mice; conditions: for Tumor size at day 50: NaHCO3-buffered, oral
Protocol: The efficacy of orally administered 3-BrPA in the treatment of pancreatic cancer was tested using an orthotopic xenograft pancreatic cancer model. Human PANC-10 pancreatic cancer cells were implanted into the pancreas of NOD/SCID mice and allowed to form 4-5 mm^3 sized tumors. Following the establishment of the tumors, tumor-bearing mice were orally administered 250 μl of a NaHCO3-buffered solution containing varying concentrations of 3-BrPA once per day. After 50 days of treatment, the tumor-bearing mice were sacrificed and tumor growth and cancer cell proliferation was analyzed.

[2] = system: Hep3B, HepG2, SK-Hep1 and VX2 cells; assay: Active caspase-3 western blot; assay type: cell-based; conditions: all four cell lines; 100, 150, 200 μM
Protocol: The apoptosis of 3-BrPA treated cells was evaluated using Annexin V staining and the formation of active caspase-3. Cells treated with 3-BrPA were stained with anti-Annexin V and analyzed by flow cytometry as well as fluorescent microscopy. Flow cytometry was performed using a Becton-Dickinson FACSCalibur. The gating was done based on unstained control cells, Annexin V—PE stained and 7-AAD stained control cells. For fluorescent microscopy, Annexin V staining was performed using Annexin V staining Microscopy kit (BD Biosciences, USA) according to the protocol recommended by the manufacturer. In brief, cells grown in chambered slides were treated with either 3BrPA or the vehicle, washed once with ice-cold PBS followed by two washes with binding buffer, at the end of the treatment period. Cells were then incubated with the FITC-conjugated Annexin V fluorescent antibody for 15 min followed by a gentle wash. The cells were kept in binding buffer and images were observed captured using a Zeiss Axiovert 200 Microscope (Carl Zeiss Microimaging Inc., USA). Active caspase-3, an apoptotic marker, was identified by western blot analysis. Lysates prepared from equal numbers of cells treated with different concentrations of 3BrPA were subjected to SDS-PAGE electrophoresis and immunoblotting against active (cleaved) caspase-3. […]

## O=C(O)C(=O)CBr [3-BrPA, 3-bromopyruvate]
[1]; daily dose of 50 mg/kg
  Tumor size at day 50: 12-14 mm^3
  Local metastases: lacked any signs of local metastases
  Mitotic index: 9-10 mitotic cells per field
[1]; daily dose of 100 mg/kg
  Tumor size at day 50: 7-8 mm^3
  Local metastases: lacked any signs of local metastases
  Mitotic index: 7 mitotic cells per field
[1]; daily dose of 150 mg/kg
  Tumor size at day 50: 4-6 mm^3
  Local metastases: lacked any signs of local metastases
  Mitotic index: 2-4 mitotic cells per field
[1]; daily dose of 200 mg/kg
  Tumor size at day 50: 3-5 mm^3
  Local metastases: lacked any signs of local metastases
  Mitotic index: 1-2 mitotic cells per field
[1]; daily dose of 200 mg/kg, day 50
  Tumor growth: no signs of growth
[2]
  Caspase-3 activation (immunoblot): dose dependent increase
